Measurements as given in a melting point compilation (Tetko et al.; mined from patent text by program, amines drawn as free bases though some values may be those of a salt).

melting point [°C] | SMILES
172 to 174 | COc1nc(-c2ccccc2Cl)c2ccsc2n1
190 to 193 | O=C1CCC(c2ccc(Cl)c([N+](=O)[O-])c2)=NN1
127 to 131 | Cn1cc(CCNC(=O)OC(C)(C)C)c2cc(S(=O)(=O)c3ccccc3)ccc21
184 to 185 | CC(C)Oc1cc(CCC(=O)NS(=O)(=O)c2ccccc2)n(Cc2ccc(Cl)cc2Cl)n1
195 to 200 | N#Cc1ccc(CC(NC(=O)CC(NS(=O)(=O)c2ccc3ccccc3c2)c2ccccc2)C(=O)N2CCCC2)cc1 (stereo not given)
120 to 121 | CCn1c(COCc2ccc(OC)cc2)nc(C(C)C)c1Sc1cc(Cl)cc(Cl)c1
136 to 139 | CS(=O)(=O)c1ccc(-c2ccc(C(F)(F)F)n2-c2ccc(F)cc2)cc1
75 to 76 | C=CCNC(=O)N1CC(Oc2cccc(C(F)(F)F)c2)C1
90 | COc1ccccc1-c1cccc2c1OC(CN)CN2C (stereo not given)
193 to 194 | O=C1Nc2ccc(Cl)cc2C2(c3cccs3)OCCN12 (stereo not given)
224 | CCOC(=O)C1=C(N)NC(C)=C(C(=O)OC)C1c1ccccc1C#N (stereo not given)
281 to 282 | Clc1ccc2[nH]c3c4ccccc4nc-3c(Cl)c2c1
155 to 156 | O=C(Nc1c(C(O)(C(F)(F)F)C(F)(F)F)ccc2ccccc12)c1ccc(Br)cc1
121 to 122 | COc1ccc(N2CCN(c3c(C)c(C)c4c(c3C3CC3)CC(C)(C)O4)CC2)cc1
199 to 200 | CS(=O)(=O)N1CCC(Nc2nc(Nc3ccc(F)c(Cl)c3)nc(OCC(F)(F)F)n2)C1 (stereo not given)
225 to 226 | O=C(O)c1cccc(-n2cc(-c3ccccc3F)cn2)c1
125 to 126 | O=C(c1ccccc1)c1cc([N+](=O)[O-])ccc1O
62 to 64 | C=CS(=O)(=O)C=CSc1ccc(C(C)(C)C)cc1
170 to 172 | COC(=O)c1nc2n(n1)-c1ccccc1N(c1cccc(C)c1C)C2
210 | C#CCOc1ccc(-c2nc3cnccc3[nH]2)c(OC)c1
234 to 235 | O=C(O)c1ccc(C2=NCCS2)nc1
109 to 110 | Cc1ccccc1N1CCc2cnc3c(C)cccc3c21

Second part, the compound before the results:

SMILES | melting point [°C]
COc1cc(C(=O)OC(C)(C)C)ccc1Cn1cc(C=O)c2ccc(C(=O)NCC3CCCC3)cc21 | 134 to 135
O=C(Nc1cccc(CN2C(=O)[C@H]3CCC[C@H]3Nc3ccccc32)c1)OCc1ccccc1 (relative stereo) | 179 to 180
Oc1ccc(-c2c3ccccc3cc3sc4ccccc4c23)cc1I | 125 to 128
CCCCC1CCC2NC(=O)CC2C1 (stereo not given) | 109 to 111
CCc1ncnc(NC2CCC(c3ccc(Oc4ccc(C(F)(F)F)cn4)cc3)CC2)c1Cl (stereo not given) | 114 to 116
CCOC(=O)CC(=O)c1cc(F)c(OP(=O)(OCC)OCC)nc1Nc1ccc(F)cc1F | 127 to 130
CCOC(=O)c1cc2c3ccccc3n(CCCc3ccccc3)c2c(C)n1 | 101 to 102
COc1cc(OC)c2c(-c3ccc4c(c3)OCO4)c3c(cc2c1)C(=O)NC3 | 252 to 254
CC(=O)C1(Nc2ccccc2)CCN(CCc2ccccc2)CC1 | 101
Cc1c(C(=O)Nc2ccc(N3CCC(N4CCOCC4)CC3)c([N+](=O)[O-])c2)cnn1-c1ccc(Cl)cc1 | 195 to 200
CCCc1nc(N)cc(OC)n1 | 97 to 99
CN(C)C(=S)N1C=CC=NC1N (stereo not given) | 134 to 136
CCCC1(CCC)CCCc2c(Nc3ccc(Cl)cc3Cl)nc(C)nc21 | 238 to 244
COCCn1c(C)cc(C(=O)c2cccc(Cl)c2)c1C | 112 to 113
C[Si]1(C(CN)CC(=O)O)CCCCC1 (stereo not given) | 160 to 162
O=C(O)c1c(Cl)cc(Cl)nc1Cl | 138 to 141
OC(CNCCCc1ccccc1)COc1cccc2[nH]ncc12 (stereo not given) | 122 to 124
Nc1nc2c(ncn2COCCOC(=O)c2ccccc2)c(=O)[nH]1 | 222 to 226
